The values that follow come from US9617237B2, “Partially saturated tricyclic compounds and methods of making and using same” (Zafgen, Inc., priority 2011, dated 2017).

The target in this assay is T1, recombinant human MetAP2 (Homo sapiens, UniProt P50579).
T1 construct: made in house; host or cells: Sf9 insect cells
The assay can be described thus: Inhibition of recombinant human MetAP2 activity (fluorescence, MAS substrate, amino acid oxidase/Amplex red). The assay is classed as biochemical. The settings on record: manganese enzyme; 0.75 mM Methionine-Alanine-Serine (MAS) substrate; 30 minutes at 25° C.; pH 7.5; 1% DMSO. The protocol: Compounds are tested for their capacity to inhibit recombinant human MetAP2 activity using the following assay.
Human recombinant MetAP2 expressed in Sf9 cells followed by affinity purification and EDTA treatment to remove endogenous active site cation was dialysed against MnCl2 to produce the manganese enzyme used in the assay. The assay was carried out for 30 minutes at 25° C. in 50 mM HEPES buffer containing 100 mM NaCl, pH 7.5 the presence of 0.75 mM Methionine-Alanine-Serine (MAS) substrate and 50 μg/ml amino acid oxidase using a dilution of purified MetAP2 giving >3-fold signal: noise. Cleavage of the substrate by MetAP2 and oxidation of free methionine by amino acid oxidase was detected and quantified using fluorescence generated by Amplex red (10-acetyl-3,7-dihydroxyphenoxazine) in combination with horseradish peroxidase which detects H2O2 released during the oxidation step. The fluorescent signal was detected using a multiwell fluorimeter. Compounds were diluted in DMSO prior to addition to assay buffer, the final DMSO concentration in the assay being 1%.
IC50 values are calculated using the XLfit software package (version 2.0.5).

Counter-ions that a name gives are not always drawn.

T1 sequence (P50579 whole entry): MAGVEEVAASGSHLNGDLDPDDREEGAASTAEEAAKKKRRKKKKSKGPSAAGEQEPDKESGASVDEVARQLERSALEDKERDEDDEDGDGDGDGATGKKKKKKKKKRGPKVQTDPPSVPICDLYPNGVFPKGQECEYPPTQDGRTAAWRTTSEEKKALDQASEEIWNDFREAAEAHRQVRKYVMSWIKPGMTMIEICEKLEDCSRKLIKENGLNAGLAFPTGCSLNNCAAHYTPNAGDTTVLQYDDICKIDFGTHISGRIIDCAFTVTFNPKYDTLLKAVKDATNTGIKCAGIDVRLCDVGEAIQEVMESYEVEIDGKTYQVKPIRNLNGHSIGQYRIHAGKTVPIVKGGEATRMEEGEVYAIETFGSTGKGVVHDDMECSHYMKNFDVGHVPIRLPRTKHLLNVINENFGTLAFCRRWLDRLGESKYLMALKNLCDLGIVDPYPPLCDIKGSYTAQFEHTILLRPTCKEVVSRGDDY

What is called IC50 is the concentration that inhibits the measured activity by half. `CCN1CCN(Cc2cc(F)ccc2S(=O)(=O)Nc2ccc3c(c2C(=O)O)OC[C@@H]2C[C@H]32)C(=O)C1` (racemic) [(1aRS,7bSR)-5-[2-(4-Ethyl-2-oxopiperazin-1-ylmethyl)-4-fluorobenzene-sulfonylamino]-1,1a,2,7b-tetrahydrocyclopropa-[c]chromene-4-carboxylic acid]: the half-inhibitory concentration (IC50) was 50 to 500 nM.

As for “(1aRS,7bSR)-5-{2[(Z)-3-((R)-3-Hydroxypyrrolidin-1-yl)aminoprop-1-enyl]-4-fluorobenzene-sulfonylamino}-1,1a,2,7b-tetrahydro-cyclopropa[c]chromene-4-carboxylic acid”, the IC50 lay within 50 to 500 nM.

With `CN(C)CCCCNc1ccccc1S(=O)(=O)Nc1ccc2c(c1C(=O)O)OC[C@@H]1C[C@H]21` (racemic) [(1aRS,7bSR)-5-[2-(4-Dimethylaminobutylamino)benzene-sulfonylamino]-1,1a,2,7b-tetrahydrocyclopropa[c]chromene-4-carboxylic acid], the IC50 is < 50 nM.

For the molecule `CCN(CC)C/C(C)=C\c1cc(F)ccc1S(=O)(=O)Nc1ccc2c(c1C(=O)O)OC[C@@H]1C[C@H]21` (racemic) [(1aRS,7bSR)-5-[2-((Z)-3-Diethylamino-2-methylprop-1-enyl)-4-fluorobenzene-sulfonylamino]-1,1a,2,7b-tetrahydrocyclopropa-[c]chromene-4-carboxylic acid], the IC50 is < 50 nM.

Take `CCN1CCC[C@@H]1C(=O)N(C)Cc1cc(F)ccc1S(=O)(=O)Nc1ccc2c(c1C(=O)O)OCC1CC21` (mixture of isomers) [(1aRS,7bSR)-5-(2-{N-[((R)-1-Ethylpyrrolidine-2-yl)carbonyl]-N-methylaminomethyl}-4-fluorobenzenesulfonylamino)-1,1a,2,7b-tetrahydrocyclopropa[c]chromene-4-carboxylic acid]: the IC50 was 50 to 500 nM.

With `CCN(CC)CCCCc1cc(F)ccc1S(=O)(=O)Nc1ccc2c(c1C(=O)O)OCC1CC21` (stereo not drawn) [(1aRS,7bSR)-5-[2((Z)-4-Diethylaminobutyl)-4-fluorobenzenesulfonylamino]-1,1a,2,7b-tetrahydrocyclopropa[c]chromene-4-carboxylic acid], the IC50 lay in the range of 50 to 500 nM.

In the case of `CN(C)CCCNC(=O)c1ccccc1S(=O)(=O)Nc1ccc2c(c1C(=O)O)OC[C@@H]1C[C@H]21` (racemic) [(1aRS,7bSR)-5-[2-(3-Dimethylaminopropylcarbamoyl)benzene-sulfonylamino]-1,1a,2,7b-tetrahydrocyclopropa[c]chromene-4-carboxylic acid], the half-maximal inhibitory concentration (IC50) is 50 to 500 nM.

For `CCN1CC[C@H](CCNc2ccccc2S(=O)(=O)Nc2ccc3c(c2C(=O)O)OC[C@@H]2C[C@H]32)C1` (mixture of isomers) [(1aRS,7bSR)-5-{2-[2-((S)-1-Ethylpyrrolidin-3-yl)ethylamino]-benzenesulfonyl-amino}-1,1a,2,7b-tetrahydrocyclopropa-[c]chromene-4-carboxylic acid], the IC50 lay in the range of 50 to 500 nM.

As for `CCN1CC[C@H](CNc2ccccc2S(=O)(=O)Nc2ccc3c(c2C(=O)O)OC[C@@H]2C[C@H]32)C1` (mixture of isomers) [(1aRS,7bSR)-5-{2-[((R)-1-Ethylpyrrolidin-3-ylmethyl)amino]-benzenesulfonylamino}-1,1a,2,7b-tetrahydrocyclopropa-[c]chromene-4-carboxylic acid], the IC50 was 50 to 500 nM.

Take `CCN1CCC[C@H]1CCNc1ccccc1S(=O)(=O)Nc1ccc2c(c1C(=O)O)OC[C@@H]1C[C@H]21` (mixture of isomers) [(1aRS,7bSR)-5-{2-[2-((S)-1-Ethylpyrrolidin-2-yl)ethylamino]-benzenesulfonyl-amino}-1,1a,2,7b-tetrahydrocyclopropa-[c]chromene-4-carboxylic acid]: the IC50 was < 50 nM.

As to `CCN1CCC[C@@H]1CCNc1ccccc1S(=O)(=O)Nc1ccc2c(c1C(=O)O)OC[C@@H]1C[C@H]21` (mixture of isomers) [(1aRS,7bSR)-5-{2-[2-((R)-1-Ethylpyrrolidin-2-yl)ethylamino]-benzenesulfonyl-amino}-1,1a,2,7b-tetrahydrocyclopropa-[c]chromene-4-carboxylic acid], the IC50 was < 50 nM.

With `CCN1CC[C@H](NC(=O)Cc2cc(F)ccc2S(=O)(=O)Nc2ccc3c(c2C(=O)O)OC[C@@H]2C[C@H]32)C1` (mixture of isomers) [(1aRS,7bSR)-5-{2-[((S)-1-Ethylpyrrolidin-3-ylcarbamoyl)-methyl]-4-fluoro-benzenesulfonyl-amino}-1,1a,2,7b-tetrahydrocyclopropa-[c]chromene-4-carboxylic acid], the IC50 lay in the range of 50 to 500 nM.

Take `CCN(CC)C/C=C\c1cc(F)ccc1S(=O)(=O)Nc1ccc2c(c1C(=O)O)OC[C@H]1C[C@@H]21` [(1aS,7bR) 5-[2-((Z)-3-Diethylaminoprop-1-enyl)-4-fluorobenzenesulfonyl-amino]-1,1a,2,7b-tetrahydrocyclopropa[c]chromene-4-carboxylic acid]: the IC50 was in the range of 50 to 500 nM.

`CCN1CCC[C@H]1CCc1cc(F)ccc1S(=O)(=O)Nc1ccc2c(c1C(=O)O)OC[C@@H]1C[C@H]21` [(1aR,7bS)-5-{2-[2-((R)-1-Ethylpyrrolidin-2-yl)ethyl]-4-fluorobenzenesulfonyl-amino}-1,1a,2,7b-tetrahydrocyclopropa-[c]chromene-4-carboxylic acid]: the IC50 was in the range of 50 to 500 nM.

`CCN1CC[C@@H](Cc2cc(F)ccc2S(=O)(=O)Nc2ccc3c(c2C(=O)O)OC[C@@H]2C[C@H]32)C1` (mixture of isomers) [(1aRS,7bSR)-5-[2-((R)-1-Ethylpyrrolidin-3-ylmethyl)-4-fluorobenzenesulfonyl-amino]-1,1a,2,7b-tetrahydro-cyclopropa[c]chromene-4-carboxylic acid]: the concentration for half-maximal inhibition (IC50) was < 50 nM.

Turning to `O=C(O)c1c(NS(=O)(=O)c2ccc(F)cc2/C=C\CNN2CC[C@H](O)C2)ccc2c1OC[C@@H]1C[C@H]21` [(1aRS,7bSR)-5-{2[(Z)-3-((S)-3-hydroxypyrrolidin-1-y)aminoprop-1-enyl]-4-fluorobenzenesulfonylamino}-1,1a,2,7b-tetrahydrocyclopropa[c]chromene-4-carboxylic acid], the IC50 fell in the range of 50 to 500 nM.

Regarding `CCN(CC)C/C=C\c1cc(F)ccc1S(=O)(=O)Nc1ccc2c3c(cnc2c1C(=O)O)OCC3` [7-[2-((Z)-3-Diethylaminoprop-1-enyl)-4-fluorobenzenesulfonyl-amino]-1,2-dihydrofuro[2,3-c]quinoline-6-carboxylic acid formate salt], the IC50 was < 50 nM.

In the case of `CCN(CC)C/C=C\c1cc(F)ccc1S(=O)(=O)Nc1ccc2c(c1C(=O)O)OCC1C2C1(F)F` (racemic) [(1aRS,7bSR)-5-[2-((Z)-3-Diethylaminoprop-1-enyl)-4-fluorobenzene-sulfonylamino]-1,1-difluoro-1,1a,2,7b-tetrahydrocyclopropa[c]chromene-4-carboxylic acid], the IC50 was < 50 nM.

For the molecule `O=C(O)c1c(NS(=O)(=O)c2ccc(F)cc2/C=C\CN2CCCC2)ccc2c1OC[C@@H]1C[C@H]21` (racemic) [(1aRS,7bSR)-5-{2[(Z)-3-(Pyrrolidin-1-yl)prop-1-enyl]-4-fluorobenzenesulfonylamino}-1,1a,2,7b-tetrahydro-cyclopropa[c]chromene-4-carboxylic acid], the IC50 was < 50 nM.

As for `CCN1CC[C@@H](Cc2cc(F)ccc2S(=O)(=O)Nc2ccc3c(c2C(=O)O)OC[C@@H]2C[C@H]32)C1` (single isomer, unassigned), the IC50 was < 50 nM.

On to `CCN(CC)CCCNc1ccccc1S(=O)(=O)Nc1ccc2c(c1C(=O)O)OCC1CC21` (stereo not drawn) [(1aRS,7bSR)-5-[2-(3-N,N,-Diethylaminopropylamino)benzene-sulfonylamino]-1,1a,2,7b-tetrahydrocyclopropa[c]chromene-4-carboxylic acid], for which the IC50 is < 50 nM.

Take `CCNC/C=C\c1cc(F)ccc1S(=O)(=O)Nc1ccc2c(c1C(=O)O)OC[C@@H]1C[C@H]21` (single isomer, unassigned) [(1aRS,7bSR)-5-[2((Z)-3-ethylaminoprop-1-enyl)-4-fluorobenzenesulfonylamino]-1,1a,2,7b-tetrahydrocyclopropa[c]chromene-4-carboxylic acid]: the 50% inhibitory concentration (IC50) was < 50 nM.

`CCN1CC[C@@H](Nc2ccccc2S(=O)(=O)Nc2ccc3c(c2C(=O)O)OC[C@@H]2C[C@H]32)C1` (mixture of isomers) [(1aRS,7bSR)-5-{2-[((R)-1-Ethylpyrrolidin-3-yl)amino]-benzenesulfonylamino}-1,1a,2,7b-tetrahydrocyclopropa-[c]chromene-4-carboxylic acid]: the IC50 lay within 50 to 500 nM.

Consider `CCN(CC)C/C=C\c1cc(F)ccc1S(=O)(=O)Nc1ccc2c(c1C(=O)O)OC[C@@H]1C[C@H]21` [(1aR,7bS) 5-[2-((Z)-3-Diethylaminoprop-1-enyl)-4-fluorobenzenesulfonyl-amino]-1,1a,2,7b-tetrahydrocyclopropa[c]chromene-4-carboxylic acid], for which the IC50 was < 50 nM.

Take `CCN1CC[C@H](Nc2ccccc2S(=O)(=O)Nc2ccc3c(c2C(=O)O)OC[C@@H]2C[C@H]32)C1` (mixture of isomers) [(1aRS,7bSR)-5-{2-[((S)-1-Ethylpyrrolidin-3-yl)amino]-benzenesulfonylamino}-1,1a,2,7b-tetrahydrocyclopropa-[c]chromene-4-carboxylic acid]: the IC50 is 50 to 500 nM.
